Earlier results as cited in patent US11517526B2, “Stabilised hypochlorous solutions and their medical cosmetic uses” (Clinical Health Technologies Ltd, priority 2019, dated 2022).

Experiments:
[1] = natural state, unless stabilised

## OCl [hypochlorous acid (HOCl), hypochlorous acid]
[1]
  half-life: 48 h
microbes
  effectiveness as an antimicrobial relative to hypochlorite (OCl−): 80-100 times
